Measured values taken from patent US20130315920A1, “Cross Protective Epitopes of Aspergillus Fumigatus and Candida Albicans” (Cell Medica Limited, priority 2010, published 2013).

Tested on: inactivated A. fumigatus
Test: Peptide-specific T-cell clones stimulated with DC incubated with inactivated A. fumigatus (resting conidia, germinating conidia, hyphae)
Type: cell-based, Aspergillus fumigatus
Excerpt: Response of Crf1 peptide-specific T-cell clones to stimulation with native A. fumigatus antigen. (a) T-cell clones from different donors specific for p1, p22, p27, p41 and p59 that responded to stimulation with Crf1 mRNA-transfected DC were stimulated with A. fumigatus cell extract or (b) inactivated germinating A. fumigatus conidia. IFN-γ values are given after subtraction of the negative control. Shown is 1 clone per antigen and donor (representative experiments, n≧3). (c) Crf1 p41-specific T-cell clones respond to stimulation with DC incubated overnight with germinating A. fumigatus conidia or hyphae but not to resting conidia. T cell clones were stimulated with A. fumigatus inactivated 0 h (resting conidia), 6 h (germinating conidia) or 12 h (hyphae) after incubation in growth medium.
T-cell cloning was performed as described in below. T-cell clones were stimulated either with mature peptide-pulsed (2.5 μg/ml) or Crf1 mRNA-transfected DC, immature DC incubated for 24 h with A. fumigatus cell extract (20 μg/ml) in the presence of cytokine maturation cocktail or immature DC incubated for 24 h with inactivated A. fumigatus or C. albicans fungus (multiplicity of infection 3) in a R:S ratio of 5:1.
Fungal extracts were generated as described^48 and protein content was measured by Bradford protein assay (Perbio Science) according to the manufacturers' instructions. […]

**Q.** What does the source list for “HTYTIDWTKDAVTWS (Peptide found in the Crf1 protein of Aspergillus fumigatus) [p41, Crf1 aa 161-175]”?
**A.** Activation of peptide-specific T-cell clones by resting conidia (A. fumigatus inactivated 0 h (resting conidia)): resting conidia were not able to activate peptide-specific T-cell clones; Activation of peptide-specific T-cell clones by germinating conidia and hyphae (A. fumigatus inactivated 6 h (germinating conidia) or 12 h (hyphae)): germinating conidia induced similar T-cell responses as outgrown hyphae
